Measurements reported in US9828592B2, “Chemically modified sophorolipids and uses thereof” (Sophoro Biotechnologies, LLC, priority 2011, dated 2017).

Columns and labels:
Trichoderma viride = details: Mandels et al. 1962; cited from earlier work
[1] = tested on: Trichoderma reesei (Rut-C30); test: Cellulase induction studies in Trichoderma reesei culture, CMC endo-glucanase activity assay; assay type: cell-based; details: for Cellulase activity U/mL at day 3 / Cellulase activity U/mg at day 3: 2% glucose
[2] = tested on: Trichoderma reesei (Rut-C30); test: as above; assay type: cell-based; details: for CMC (U/mL) at day 5: Example 4, inducer at 2% as carbon source, no glucose
Procedure: Trichoderma reesei (Rut-C30) was selected as the host for cellulase expression in this Example. To prepare for the cellulase induction studies, a citrate minimal media was first prepared. The media composition described by England et al. in U.S. 2010/0009408 was modified to include 14.4 g/L citric acid, 4 g/L KH2PO4, 6.35 g/L (NH4)2SO4, 2 g/L MgSO4-7H2O, 0.53 g/L CaCl2-2H2O, and trace metal elements at 1 mL/L, which included 5 g/L FeSO4-7H2O, 1.6 g/L MnSO4—H2O, and 1.4 g/L ZnSO4-7H2O. The final pH was adjusted to 5.50 using NaOH.
The Trichoderma reesei (ATCC56765) was used in this Example. This fungal strain was developed as a catabolic de-repressed strain from classic mutagenesis of parent strain NG14 and the wild type QM6A. See Seidl et al., BMC Genomics, 9:327 (2008). To propagate Trichoderma, the freeze-dried stock from ATCC was first dissolved in sterile deionized water, and then transferred onto a potato dextrose agar (PDA) plate (Teknova P0047) using a sterile loop. The PDA plate was maintained at room temperature under white fluorescent light. After approximately seven days, green Trichoderma spores were observed. In addition, 60% (w/v) glucose, 15% (w/v) lactose, and 15% (w/v) cellobiose stocks were prepared and used both as controls and as the carbon source for Trichoderma growth.
To initiate cellulase induction studies for each of the sophorolipid mixtures prepared in Examples 1-3 above, 0.5 mL of glucose stock was first placed into 14 mL of citrate minimal media inside a 125 mL baffled flask. […]
To commence the fermentation, an approximately 1 cm×1 cm square agar plug was removed from the Trichoderma spore-containing PDA agar plate using a sterile loop and placed into the cellulase induction culture media. […] At five days of fermentation, the samples were collected and analyzed for carboxymethylcellulose (CMC) endo-glucanase activity. […] It should be understood that one CMC unit denotes the activity that liberates 1 μmol of reducing sugars (expressed as glucose equivalents) in one minute under the specified conditions of 50° C. and pH 4.8.

[3] = Example 8, 0.13 g/L (2.0 mg/15 mL, 0.38 mM)
[4] = Example 8, 1.3 g/L (20 mg/15 mL, 3.90 mM)
[5] = Example 9, 0.13 g/L (2.0 mg/15 mL, 0.38 mM)
[6] = Example 9, 1.3 g/L (20 mg/15 mL, 3.90 mM)
[7] = Example 8, 1.0 g/L (15 mg/15 mL, 2.92 mM)
[8] = Example 9, 1.0 g/L (15 mg/15 mL, 2.92 mM)

| Structure (SMILES) | increase in cellulase production compared to cellobiose (Trichoderma viride) | Cellulase activity U/mL at day 3 [1, 3] | Cellulase activity U/mg at day 3 [1, 3] | Cellulase activity U/mL at day 3 [1, 4] | Cellulase activity U/mg at day 3 [1, 4] | Cellulase activity U/mL at day 3 [1, 5] | Cellulase activity U/mg at day 3 [1, 5] | Cellulase activity U/mL at day 3 [1, 6] | Cellulase activity U/mg at day 3 [1, 6] | CMC (U/mL) at day 5 ([1]; Example 5, inducer at 2%, no glucose) | Cellulase activity U/mL at day 3 [1, 7] | Cellulase activity U/mg at day 3 [1, 7] | Cellulase activity U/mL at day 3 [1, 8] | Cellulase activity U/mg at day 3 [1, 8] | CMC (U/mL) at day 5 [2] | cellulase activity compared to the glucose control ([2]; Example 4, day 5, in words) |
| --- | --- | --- | --- | --- | --- | --- | --- | --- | --- | --- | --- | --- | --- | --- | --- | --- |
| OC[C@H]1O[C@@H](O[C@@H]2[C@@H](O)[C@H](O)[C@@H](CO)O[C@@H]2O)[C@H](O)[C@@H](O)[C@@H]1O [sophorose, 2-O-beta-D-glucopyranosyl-alpha-D-glucose] | about 2500 times | 3.58 U/mL | 26.9 U/mg | 15.0 U/mL | 11.2 U/mg | 3.58 U/mL | 26.9 U/mg | 15.0 U/mL | 11.2 U/mg |  |  |  |  |  |  |  |
| OC[C@H]1O[C@@H](O[C@H]2[C@H](O)[C@@H](O)C(O)O[C@@H]2CO)[C@H](O)[C@@H](O)[C@H]1O (stereo partly drawn) [lactose] |  |  |  |  |  |  |  |  |  | 8.29 U/mL | 0.64 U/mL | 0.64 U/mg | 0.64 U/mL | 0.64 U/mg | 10.1 U/mL |  |
| O=C[C@H](O)[C@@H](O)[C@H](O[C@@H]1O[C@H](CO)[C@@H](O)[C@H](O)[C@H]1O)[C@H](O)CO [cellobiose] |  |  |  |  |  |  |  |  |  |  | 0.34 U/mL | 0.34 U/mg | 0.34 U/mL | 0.34 U/mg | 2.05 U/mL | marginal cellulase activity |
